Measurements taken from patent US8084399B2, “Process for screening of a binding amphiphilic peptides specific for hairpin RNA” (priority 2009, dated 2011).
Where no end group is shown, it is not given here. [ ]: non-standard residue; d: D form. Orn = NCCC[C@H](N)C(=O)O; Dab = NCC[C@H](N)C(=O)O; Dap = NC[C@H](N)C(=O)O

Tests used:
RRE hairpin RNA = assay: Fluorescence anisotropy competition with Rev-N-rhodamine probe, binding to RRE hairpin RNA; parameters: species or system HIV; conditions: 20° C., pH 7.4, read-out: Dissociation constant, RRE
How it was run: (§1)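 Competitive fluorescence anisotropy at 20° C in 20 mM HEPES pH 7.4, 140 mM NaCl, 5 mM KCl, 1 mM MgCl2. Heat-refolded target RNA bound to 10 nM Rev-N-rhodamine probe; peptide titrated until anisotropy returned to baseline, and Kd fitted from a competition binding equation.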

TAR hairpin RNA = assay: Fluorescence anisotropy competition with Rev-N-rhodamine probe, binding to TAR hairpin RNA; parameters: species or system HIV; conditions: fluorescence anisotropy, 20° C., pH 7.4; read-out: Dissociation constant, TAR
How it was run: as §1

16S ribosomal RNA A-site = assay: Fluorescence anisotropy competition with Rev-N-rhodamine probe, binding to 16S A-site; conditions: 20° C., pH 7.4, read-out: Dissociation constant, 16S A-site
How it was run: as §1

IRES domain IV hairpin = assay: Fluorescence anisotropy competition with Rev-N-rhodamine probe, binding to IRES hairpin; parameters: species or system HCV; conditions: for differentiation coefficient (IRES): (mean Kd to other hairpin RNA)/(Kd to one hairpin RNA); for Kd: fluorescence anisotropy, 20° C., pH 7.4, read-out: Dissociation constant, IRES
How it was run: as §1

[1] = Circular dichroism (CD), percentage of alpha-helix; type: physicochemical; conditions: CD at 20° C., condition not given; for Alpha-helical rate (%), second value of pair: value after the slash; for Alpha-helical rate (%), first value of pair: value before the slash
How it was run: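 Spectra recorded at 20 °C, 190–250 nm, three averaged scans, background-corrected and converted to mean residue ellipticity. Helix fraction derived from [θ] at 222 nm relative to full-helix and random-coil reference values, which depend on residue number and temperature.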

IRES RNA [2] = assay: Tryptophan fluorescence strength on addition of target RNA; type: binding, HCV
Description: Fluorescence strength was measured to investigate target RNA binding of the third generation peptides. When tryptophan is activated by 285 nm light, it becomes fluorescent at the wavelength. Changes of fluorescence resulted from the binding respectively to different targets such as IRES, RRE, TAR and 16S A-site RNA, were measured. 0.02 equivalent of target RNA was added slowly to 1 uM peptide solution containing tryptophan.

IRES RNA [3] = assay: Solid surface method (biotin peptide on streptavidin plate, isotope-labeled RNA) with or without tRNAmix; type: binding, HCV; conditions: comparison with/without tRNAmix, in words
Description: Solid surface method was performed to investigate specificity to target RNA of the third generation peptides. Particularly, biotin was conjugated to N-terminal of the peptide, resulting in the preparation for streptavidin binding. 5′-end of target RNA was labeled with an isotope. Streptavidin coated plate was prepared, to which the amphiphilic peptide was adhered at different concentrations. The plate was reacted with a certain amount of the isotope-labeled RNA, followed by washing. Only the RNA conjugated with the amphiphilic peptide was obtained. IC50 was calculated based on the concentration of the target RNA. Experiments were performed in the presence and in the absence of tRNA^mix (Sigma-Aldrich, Germany), and the results were compared.

Substance	Kd (RRE hairpin RNA) [nM]	Kd (TAR hairpin RNA) [nM]	Kd (16S ribosomal RNA A-site) [nM]	differentiation coefficient (IRES) (IRES domain IV hairpin)	Kd (IRES domain IV hairpin) [nM]	Alpha-helical rate (%), second value of pair [1] [%]	Alpha-helical rate (%), first value of pair [1] [%]	Fluorescence strength of tryptophan at #7 reduced from that of tryptophan at #14 of peptide 3h (IRES RNA [2]; in the presence of IRES) [fold]	IC50 to IRES RNA in the presence or in the absence of tRNAmix (IRES RNA [3])	binding strength to IRES, in words (IRES domain IV hairpin; compared with the original peptide)	Fluorescence strength of tryptophan reduced by (IRES RNA [2]; wavelength moved to shorter site, IRES) [fold]
LKKLLKWLOrnKLLDapLAG (LKKLLKWL[Orn]KLL[Dap]LAG-NH2; N-terminus assumed; SMILES CC(C)C[C@H](NC(=O)[C@H](CN)NC(=O)[C@H](CC(C)C)NC(=O)[C@H](CC(C)C)NC(=O)[C@H](CCCCN)NC(=O)[C@H](CCCN)NC(=O)[C@H](CC(C)C)NC(=O)[C@H](Cc1c[nH]c2ccccc12)NC(=O)[C@H](CCCCN)NC(=O)[C@H](CC(C)C)NC(=O)[C@H](CC(C)C)NC(=O)[C@H](CCCCN)NC(=O)[C@H](CCCCN)NC(=O)[C@@H](N)CC(C)C)C(=O)N[C@@H](C)C(=O)NCC(N)=O) [peptide 3d, third generation peptide, both faces modified]	26	24	25	45	0.55	38	32	2.3	not much different		
LKKLLKLLKKLLKWAG [2u, tryptophan scanned second generation peptide]	18	7.8	3.3	14	0.69	52	20			significantly increased	1.6
LKKLLKLLKKLLDapLAG (LKKLLKLLKKLL[Dap]LAG-NH2; N-terminus assumed; SMILES CC(C)C[C@H](NC(=O)[C@H](CN)NC(=O)[C@H](CC(C)C)NC(=O)[C@H](CC(C)C)NC(=O)[C@H](CCCCN)NC(=O)[C@H](CCCCN)NC(=O)[C@H](CC(C)C)NC(=O)[C@H](CC(C)C)NC(=O)[C@H](CCCCN)NC(=O)[C@H](CC(C)C)NC(=O)[C@H](CC(C)C)NC(=O)[C@H](CCCCN)NC(=O)[C@H](CCCCN)NC(=O)[C@@H](N)CC(C)C)C(=O)N[C@@H](C)C(=O)NCC(N)=O) [2i, second generation peptide, hydrophilic face modified]	23	8.4	20	12	1.4	54	39				
LKKLLDabWLKKLLKLAG (LKKLL[Dab]WLKKLLKLAG-NH2; N-terminus assumed; SMILES CC(C)C[C@H](NC(=O)[C@H](CCCCN)NC(=O)[C@H](CC(C)C)NC(=O)[C@H](CC(C)C)NC(=O)[C@H](CCCCN)NC(=O)[C@H](CCCCN)NC(=O)[C@H](CC(C)C)NC(=O)[C@H](Cc1c[nH]c2ccccc12)NC(=O)[C@H](CCN)NC(=O)[C@H](CC(C)C)NC(=O)[C@H](CC(C)C)NC(=O)[C@H](CCCCN)NC(=O)[C@H](CCCCN)NC(=O)[C@@H](N)CC(C)C)C(=O)N[C@@H](C)C(=O)NCC(N)=O) [3a, third generation peptide, both faces modified]	22	19	13	10	1.8	55	29				
LKKLLKLLKKLLDapWAG (LKKLLKLLKKLL[Dap]WAG-NH2; N-terminus assumed; SMILES CC(C)C[C@H](NC(=O)[C@H](CC(C)C)NC(=O)[C@H](CCCCN)NC(=O)[C@H](CCCCN)NC(=O)[C@H](CC(C)C)NC(=O)[C@H](CC(C)C)NC(=O)[C@H](CCCCN)NC(=O)[C@H](CC(C)C)NC(=O)[C@H](CC(C)C)NC(=O)[C@H](CCCCN)NC(=O)[C@H](CCCCN)NC(=O)[C@@H](N)CC(C)C)C(=O)N[C@@H](CN)C(=O)N[C@@H](Cc1c[nH]c2ccccc12)C(=O)N[C@@H](C)C(=O)NCC(N)=O) [3g, third generation peptide, both faces modified]	11	5.9	17	9.4	1.2	63	41				
LKKLLKLLKKLLOrnLAG (LKKLLKLLKKLL[Orn]LAG-NH2; N-terminus assumed; SMILES CC(C)C[C@H](NC(=O)[C@H](CCCN)NC(=O)[C@H](CC(C)C)NC(=O)[C@H](CC(C)C)NC(=O)[C@H](CCCCN)NC(=O)[C@H](CCCCN)NC(=O)[C@H](CC(C)C)NC(=O)[C@H](CC(C)C)NC(=O)[C@H](CCCCN)NC(=O)[C@H](CC(C)C)NC(=O)[C@H](CC(C)C)NC(=O)[C@H](CCCCN)NC(=O)[C@H](CCCCN)NC(=O)[C@@H](N)CC(C)C)C(=O)N[C@@H](C)C(=O)NCC(N)=O) [2g, second generation peptide, hydrophilic face modified]	11	9	23	3.3	4.4	53	36				
